# Activity calls are given as the source filed them.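 How the source made its calls: active means cell survival above 50% at 25 µM despite a drug that triggers cell death; inactive means the rest.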
# System: CSM14.1 staurosporine-induced death rescue, ATPlite, 24 h
# Experiment: staurosporine death rescue in CSM14.1 cells – cell-based, undifferentiated CSM14.1, ATP luminescence, selectivity assay for ER stress death inhibitor project, SAR follow-up (AID 1348)
# Conditions: at 25 µM; hits give high values
row,Compound,survival
1,COc1ccc(C2CC(=O)C3=C(C2)Nc2ccccc2NC3c2cccc(Br)c2)cc1OC (stereo unspecified),10% (inactive)
2,CCOc1cc(C2Nc3ccccc3NC3=C2C(=O)CC(c2ccc(OC)cc2)C3)cc(Cl)c1O (stereo unspecified),9% (inactive)
3,COc1ccc(C2CC(=O)C3=C(C2)Nc2ccccc2NC3c2ccccc2C(F)(F)F)cc1OC (stereo unspecified),6% (inactive)
4,CC1(C)CC(=O)C2=C(C1)Nc1ccccc1NC2c1ccc(-c2ccccc2)cc1 (stereo unspecified),13% (inactive)
5,CCCOc1ccc(C2Nc3ccccc3NC3=C2C(=O)CC(c2ccc(OC)c(OC)c2)C3)cc1 (stereo unspecified),12% (inactive)
6,CCOc1cccc(C2Nc3ccccc3NC3=C2C(=O)CC(c2ccc(OC)cc2)C3)c1 (stereo unspecified),8% (inactive)
7,COc1ccc(C2CC(=O)C3=C(C2)Nc2ccccc2NC3c2cccc(Oc3ccccc3)c2)cc1OC (stereo unspecified),11% (inactive)
8,CSc1ccc(C2Nc3ccccc3NC3=C2C(=O)CC(c2ccccc2)C3)cc1 (stereo unspecified),8% (inactive)
9,COc1ccc(C2CC(=O)C3=C(C2)Nc2ccccc2NC3c2cccc(C(F)(F)F)c2)cc1OC (stereo unspecified),10% (inactive)
10,COc1ccc(C2CC(=O)C3=C(C2)Nc2ccccc2NC3c2cc(C)ccc2C)cc1 (stereo unspecified),9% (inactive)
11,O=C1CC(c2ccccc2)CC2=C1C(c1c(F)cccc1Cl)Nc1ccccc1N2 (stereo unspecified),8% (inactive)
